Bridges are numbered along the chain shown (N, C = ends). Where no end group is shown, it is not given here.
Key:
[1] = test system: collagen rich lesions of fibrotic lungs; assay: Histochemical analysis of healthy and fibrotic lung sections; set-up: species or system mouse; details: paraffin embedded lung sections of bleomycin-treated mice, HRP-coupled streptavidin
Description: Figure 6 Imaging of lung fibrosis. A: Paraffin embedded sections of lungs from a bleomycin-treated mice were incubated with B-collagelin and detected using HRP-coupled streptavidin. Sections were counter-stained with hematoxylin. Contiguous serial sections were stained with picrosirius red. Representative images are shown. B: Whole body planar scintigraphy of a bleomycin-treated mouse (left) and a control mouse (right). Representative images acquired one hour after the injection of 99mTc-collagelin are shown. C: Corresponding lung autoradiography and histology (picrosirius staining) showing the colocalisation of 99mTc-collagelin with fibrosis. D: Lung autoradiogaphy and histology from a mice treated with the control 99mTc-Pc.

[2] = molecular target: T1, fibrinogen (Bos taurus, UniProt P02672+P02676+P12799); assay: Solid phase assay, fibrinogen; type: binding, bovine; details: biotin-peptide 50 µg/mL, microtitration plate, n = 3
T1 sequence (P02672 20-615): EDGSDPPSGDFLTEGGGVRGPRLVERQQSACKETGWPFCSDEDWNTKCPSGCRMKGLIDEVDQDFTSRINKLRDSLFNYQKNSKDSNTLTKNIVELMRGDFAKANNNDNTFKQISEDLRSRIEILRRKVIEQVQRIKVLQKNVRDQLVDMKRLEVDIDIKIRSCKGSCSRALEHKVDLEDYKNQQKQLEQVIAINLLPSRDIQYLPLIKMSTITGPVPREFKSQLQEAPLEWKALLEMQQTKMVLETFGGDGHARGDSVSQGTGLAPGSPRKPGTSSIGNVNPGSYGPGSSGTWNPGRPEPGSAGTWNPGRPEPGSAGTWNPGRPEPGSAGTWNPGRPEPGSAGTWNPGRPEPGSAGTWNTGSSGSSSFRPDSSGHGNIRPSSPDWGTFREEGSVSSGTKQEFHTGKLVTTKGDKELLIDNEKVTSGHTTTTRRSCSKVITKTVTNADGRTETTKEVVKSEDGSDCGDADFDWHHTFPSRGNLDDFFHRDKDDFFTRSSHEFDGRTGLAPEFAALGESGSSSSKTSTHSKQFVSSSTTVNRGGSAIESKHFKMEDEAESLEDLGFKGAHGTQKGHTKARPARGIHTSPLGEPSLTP
T1 sequence (P02676 1-468): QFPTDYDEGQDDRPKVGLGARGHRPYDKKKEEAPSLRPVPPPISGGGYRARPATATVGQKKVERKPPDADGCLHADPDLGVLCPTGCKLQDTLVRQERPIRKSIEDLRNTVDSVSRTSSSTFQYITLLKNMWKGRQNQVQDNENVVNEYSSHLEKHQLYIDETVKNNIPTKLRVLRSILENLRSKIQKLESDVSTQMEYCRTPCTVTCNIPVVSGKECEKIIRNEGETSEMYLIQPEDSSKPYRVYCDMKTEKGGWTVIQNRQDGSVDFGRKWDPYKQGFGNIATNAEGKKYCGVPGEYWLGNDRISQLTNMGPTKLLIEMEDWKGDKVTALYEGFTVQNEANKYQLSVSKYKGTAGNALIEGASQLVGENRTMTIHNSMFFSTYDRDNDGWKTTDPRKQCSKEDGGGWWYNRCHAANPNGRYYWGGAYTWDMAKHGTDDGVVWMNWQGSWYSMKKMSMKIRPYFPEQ
T1 sequence (P12799 25-444): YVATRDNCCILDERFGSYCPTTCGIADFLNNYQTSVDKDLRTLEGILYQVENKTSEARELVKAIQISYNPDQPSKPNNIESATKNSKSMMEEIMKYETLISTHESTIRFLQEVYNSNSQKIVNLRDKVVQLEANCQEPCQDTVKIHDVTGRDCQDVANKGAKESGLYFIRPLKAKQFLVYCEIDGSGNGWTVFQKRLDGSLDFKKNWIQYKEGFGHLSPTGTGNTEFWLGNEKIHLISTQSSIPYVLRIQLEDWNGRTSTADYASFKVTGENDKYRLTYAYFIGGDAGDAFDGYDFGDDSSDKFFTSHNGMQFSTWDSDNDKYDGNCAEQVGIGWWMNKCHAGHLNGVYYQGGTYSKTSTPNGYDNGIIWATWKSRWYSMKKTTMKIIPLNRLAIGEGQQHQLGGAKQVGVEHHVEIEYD
Description: Biotin-peptides (50 µg.mL^−1) were incubated on microtitration wells, coated with 1 µg of type-I collagen, convulxin, collagen related peptides, bovine fibrinogen, human fibronectin, rat vitronectin, murine laminin or bovine serum albumin. Bound peptides were detected using HRP-coupled extravidin and the HRP substrate O-phenyl-dianisidine.

[3] = test system: fibrotic myocardial infarction scar; type: in vivo, rat; details: rat, in vivo
Description: Myocardial infarction of the left ventricle was induced in rats as follows. Male Wistar rats (CERJ, France) were housed in a controlled environment and fed with a standard rat chow. Myocardial infarction of the left ventricle was induced by ligature of the left descending coronary artery performed under general anesthesia [1 mL.kg^−1 i.p. ketamine (Imalgene 500, Merial) and 0.5 mL.kg^−1 i.p. xylazine (Rompun, Bayer)] and positive pressure ventilation, as described. This protocol was performed under a permit from the French Veterinary Services Directorate.
Two types of control animals were used: healthy rats, and healthy rats which had undergone a simple throracotomy (sham-operated). ^99mTc-biotin-collagelin blood kinetics and biodistribution were investigated by counting blood samples (taken from a jugular catheter) for 6 h after i.v. injection, and organs (extracted after sacrifice) 2 h after injection in a gamma-counter, together with aliquots of the injected preparation (CobraII, Packard, Meriden, USA). Ex vivo myocardial labeling and isotopic imaging were performed 4 weeks after the coronary ligature (or throracotomy), when the lesions had had the time to heal.
For in vivo experiments, radiotracers (70 MBq) were administered i.v. to anesthetized animals (pentobarbital i.p. 6 mg/100 g BW, Ceva Santé Animale, France) within 2 h of radiolabeling. Scintigraphic images were obtained 0–2 h, 4 h, 6 h, 10 h and 24 h after injecting ^99mTc-streptavidin-biotin peptides and 0–3 h after injecting ^99mTc-biotinylated peptides. Planar and tomographic 1-h acquisitions were performed using a dedicated small animal γIMAGER system (Biospace Lab, Paris, France) equipped with 2 parallel low-energy high-resolution collimators (matrix 128×128, 15% energy window centered on 140 KeV). Tracer uptake in the left cardiac area was assessed visually. Two regions of interest were drawn on the scintigrams, over the heart and over the right lung. The mean activity (cpm) per pixel was determined in each region of interest. Then heart-to-lung activity ratios (HLR) were calculated on both planar and transversal tomographic images.

[4] = test system: platelet function; assay: Effect on platelet function; details: stated in discussion, no method given
[5] = test system: collagen in sections of rat aorta and tail tendon; assay: Histochemical analysis of rat aorta and tail tendon sections; details: frozen sections of rat aorta and tail tendon, biotin-peptide 200 µg/mL, HRP-coupled streptavidin
Description: Sections were counter-stained with hematoxylin-eosin (Merck). Collagen was stained using picrosirius red. Sections ([…]) of rat tail tendon were processed as above.

`CSCC[C@@H]1NC(=O)[C@H](C(C)C)NC(=O)[C@H](CCCNC(=N)N)NC(=O)CNC(=O)[C@@H]2CCCN2C(=O)[C@@H](NC(=O)CNC(=O)[C@H](CO)NC(=O)CNC(=O)[C@H](CO)NC(=O)CCCC[C@@H]2SC[C@@H]3NC(=O)N[C@@H]32)CSSC[C@@H](C(N)=O)NC(=O)[C@@H]2CCCN2C(=O)CNC(=O)[C@H](CCC(=O)O)NC(=O)[C@H](CC(=O)O)NC(=O)[C@H](CC(=O)O)NC(=O)CNC(=O)[C@H](CC(C)C)NC(=O)[C@H](Cc2c[nH]cn2)NC(=O)[C@H](CC(C)C)NC(=O)CNC(=O)[C@H](Cc2c[nH]cn2)NC1=O` [collagelin] was tested, and the “Histochemical staining of lung sections” value [1] was “coincided with the collagen rich lesions”, the “Binding to immobilized fibrinogen” value [2] was “either to be weak or not to occur at all” and the “Accumulation of the tracer in the skin of the animals” value [3] was “did not notice any accumulation”. The “Uptake in bone marrow” value [3] was “low level” and the “Effect on platelet function” value [4] was “no effect”.
In the case of “SGSGCGPQGARGLTGASAGGPC (disulfide 5-22 (inferred)) [reference compound]”, the “Histochemical staining of tissue collagen” value [5] is reported as “not” and the “Binding to immobilized fibrinogen” value [2] is reported as “did not bind”.

— publication PMC2680759, “Non-Invasive Molecular Imaging of Fibrosis Using a Collagen-Targeted Peptidomimetic of the Platelet Collagen Receptor Glycoprotein VI” (PLoS ONE, 2009)
